Test results taken from paper PMC6149774, “Inhibition by Commercial Aminoglycosides of Human Connexin Hemichannels Expressed in Bacteria” (Molecules : A Journal of Synthetic Chemistry and Natural …, 2017).
One block for each molecule: values may come before it.

What was measured:
human Cx26 hemichannels = target: T1, human Cx26 hemichannels (Homo sapiens, UniProt P29033); experiment: Cx26-dependent growth complementation assay in LB2003 cells; type: cell-based; conditions: for Reduction of Cx26-dependent growth complementation: 100 μM aminoglycoside
T1 construct: Details of the human Cx26, Cx43, and Cx46 DNAs used to transform LB2003 cells have been published; expressed in transfected cells; host or cells: E. coli LB2003 (with pREP4), IPTG-induced from pQE60
Protocol: (§1) We then tested all AGs in Figure 4 for inhibition of connexin-dependent growth in AG-resistant LB2003 cells transformed with the pREP4 plasmid.
(§2) Basically, freshly prepared competent LB2003 containing the pREP4 plasmid were transformed with pQE60 (empty plasmid; negative control), pQE-Cx26 (human Cx26 DNA into pQE60), pQE-Cx43 (human Cx43 into pQE60) or pQE-Cx46 (human Cx46 into pQE60). After growing overnight in Luria-Bertani (LB) medium (BD, Franklin Lakes, NJ, USA) supplemented with 100 mM KCl (to allow growth) and 0.4 mg/mL ampicillin, the cells were washed four times with NLM, to remove residual potassium from the LB medium, and were resuspended in complementation growth medium to an OD600 of 0.2. NLM contained 46 mM Na2HPO4, 23 mM NaH2PO4, 8 mM (NH4)2SO4, 0.4 mM MgSO4, 0.012 mM FeSO4, 1 mM sodium citrate, 44 mM glucose, and 0.006 mM thiamine hydrochloride, pH 7.0. KLM was identical to NLM except for the equimolar replacement of Na^+ with K^+. For growth-complementation by Cx26, Cx43, and Cx46 in low-[K^+] medium we used NLM + 4 mM KCl, NLM + 8 mM KCl, and NLM + 16 mM KCl, respectively. Expression of Cx26 was induced with 0.5 mM IPTG (GoldBio, St. Louis, MO, USA) at the time of dilution to OD600 = 0.2. For growth-complementation by Cx43 and Cx46, we used 10 µM IPTG. Transformed cells in the appropriate growth medium were seeded in 24- or 96-well plates, and the plates were incubated at 30 °C, with shaking at 250 and 500 rpm, respectively. OD600 was measured after 18 h manually for the 24-well plates or in a plate reader for the 96-well plates (Falcon 353072, Corning Inc., Corning, NY, USA). The initial OD600 = 0.2 was subtracted for growth calculations.

human Cx43 hemichannels = target: T2, human Cx43 hemichannels (Homo sapiens, UniProt P17302); experiment: Cx43-dependent growth complementation assay in LB2003 cells; type: cell-based; conditions: for IC50: LB2003-pREP4 cells, NLM + 8 mM KCl, 10 µM IPTG, OD600 after 18 h, mean ± SEM
T2 construct: Details of the human Cx26, Cx43, and Cx46 DNAs used to transform LB2003 cells have been published; expressed in transfected cells; host or cells: E. coli LB2003 (with pREP4), IPTG-induced from pQE60
Protocol: as §1, §2

human Cx46 hemichannels = target: T3, human Cx46 hemichannels (Homo sapiens, UniProt Q9Y6H8); experiment: Cx46-dependent growth complementation assay in LB2003 cells; type: cell-based; conditions: for IC50: LB2003-pREP4 cells, NLM + 16 mM KCl, 10 µM IPTG, OD600 after 18 h, mean ± SEM
T3 construct: Details of the human Cx26, Cx43, and Cx46 DNAs used to transform LB2003 cells have been published; expressed in transfected cells; host or cells: E. coli LB2003 (with pREP4), IPTG-induced from pQE60
Description: The first task is accomplished through the use of defined media. We use Na^+ liquid medium (NLM) and K^+ liquid medium (KLM). NLM is a K^+-free phosphate-buffered medium (see Materials and Methods), whereas KLM is a K^+-rich medium that has the composition of NLM, except for the equimolar replacement of Na^+ with K^+. […] By mixing NLM and KLM it is easy to find a range of low [K^+]s where LB2003 cells expressing connexins grow. To optimize the signal-to-noise ratio we identified the “low” [K^+] at which the connexin-expressing cells grow to the highest absorbance measured at 600 nm (OD600), and then tested the dependence of the growth on the concentration of the expression inducer, isopropyl-β-D-thiogalactopyranoside (IPTG). This is important because the optimal signal-to-noise ratio depends on a balance between sufficient permeability to allow K^+ uptake through HCs and too many active HCs, which inhibits growth as a result of depolarization of the inner membrane and/or unbalanced shifts of ions and metabolites. In the case of Cx26, optimal growth is achieved with 4 mM K^+ and 500 μM IPTG, but for Cx43, 8 mM K^+ and 10 μM IPTG work best. From initial trials, we identified 16 mM K^+ and 10 μM IPTG as the best conditions for the Cx46 growth complementation assay.
This aminoglycoside 3'-phosphotransferase inactivates the AGs in Figure 4 by phosphorylation, allowing us to test for inhibition of connexin-dependent growth complementation without interference by the AG antibiotic effect. The absence of antibiotic effect in the LB2003-pREP4 cells was assayed at an AG concentration of 100 μM in cells grown in KLM (Figure 5). […] We then tested all AGs in Figure 4 for inhibition of connexin-dependent growth in AG-resistant LB2003 cells transformed with the pREP4 plasmid.
Briefly, pQE60 plasmids containing the connexin DNAs and plasmid pREP4 were used for transformation of E. coli LB2003 cells (generously provided by Dr. E.P. Bakker, Osnabrück University, Osnabrück, Germany). The pQE60 plasmids confer resistance to ampicillin, and pREP4 confers resistance to the AGs used in this study. LB2003 cells are missing three key K^+ transporters (Δtrk, Δkup, and Δkdp strains) and as a result cannot grow in low-[K^+] media [22, 23, 25]. Transformed LB2003 cells were stored as a 25% glycerol stock at −80 °C.
Basically, freshly prepared competent LB2003 containing the pREP4 plasmid were transformed with pQE60 (empty plasmid; negative control), pQE-Cx26 (human Cx26 DNA into pQE60), pQE-Cx43 (human Cx43 into pQE60) or pQE-Cx46 (human Cx46 into pQE60).

HCs = system: HCs; design: method as in PMID 26769242, PMID 25237294; conditions: mammalian cells and frog oocytes; cited from earlier work
GJCs = system: GJCs; design: method as in PMID 26769242, PMID 25237294; conditions: cited from earlier work
[1] = system: Cx26, Cx43, and Cx46 hemichannels; experiment: Connexin-dependent growth complementation assay, all connexin groups together; type: cell-based, human; conditions: 100 μM aminoglycoside, AG-resistant LB2003 cells with pREP4
Protocol: The absence of antibiotic effect in the LB2003-pREP4 cells was assayed at an AG concentration of 100 μM in cells grown in KLM (Figure 5). […] We then tested all AGs in Figure 4 for inhibition of connexin-dependent growth in AG-resistant LB2003 cells transformed with the pREP4 plasmid.
Basically, freshly prepared competent LB2003 containing the pREP4 plasmid were transformed with pQE60 (empty plasmid; negative control), pQE-Cx26 (human Cx26 DNA into pQE60), pQE-Cx43 (human Cx43 into pQE60) or pQE-Cx46 (human Cx46 into pQE60). After growing overnight in Luria-Bertani (LB) medium (BD, Franklin Lakes, NJ, USA) supplemented with 100 mM KCl (to allow growth) and 0.4 mg/mL ampicillin, the cells were washed four times with NLM, to remove residual potassium from the LB medium, and were resuspended in complementation growth medium to an OD600 of 0.2. NLM contained 46 mM Na2HPO4, 23 mM NaH2PO4, 8 mM (NH4)2SO4, 0.4 mM MgSO4, 0.012 mM FeSO4, 1 mM sodium citrate, 44 mM glucose, and 0.006 mM thiamine hydrochloride, pH 7.0. KLM was identical to NLM except for the equimolar replacement of Na^+ with K^+. For growth-complementation by Cx26, Cx43, and Cx46 in low-[K^+] medium we used NLM + 4 mM KCl, NLM + 8 mM KCl, and NLM + 16 mM KCl, respectively. […] OD600 was measured after 18 h manually for the 24-well plates or in a plate reader for the 96-well plates (Falcon 353072, Corning Inc., Corning, NY, USA). […]

[2] = system: Cx26, Cx43, and Cx46 hemichannels; design: method as in PMID 25585383, PMID 27789753; conditions: cited from earlier work
LB2003 cells = experiment: Antibiotic effect on growth of LB2003 cells in KLM; type: cell-based, Escherichia coli; conditions: 100 μM, cells grown in KLM
Protocol: The absence of antibiotic effect in the LB2003-pREP4 cells was assayed at an AG concentration of 100 μM in cells grown in KLM (Figure 5).
All drugs were used at a concentration of 100 μM. The cells were grown in K^+ liquid medium (KLM). […] Data were normalized to the OD600 of LB2003-pREP4 cells in the absence of drug (5.7 ± 0.1).

[3] = LB2003-pREP4 cells, NLM + 4 mM KCl, 0.5 mM IPTG, OD600 after 18 h, mean ± SEM

T2 sequence (P17302 whole entry): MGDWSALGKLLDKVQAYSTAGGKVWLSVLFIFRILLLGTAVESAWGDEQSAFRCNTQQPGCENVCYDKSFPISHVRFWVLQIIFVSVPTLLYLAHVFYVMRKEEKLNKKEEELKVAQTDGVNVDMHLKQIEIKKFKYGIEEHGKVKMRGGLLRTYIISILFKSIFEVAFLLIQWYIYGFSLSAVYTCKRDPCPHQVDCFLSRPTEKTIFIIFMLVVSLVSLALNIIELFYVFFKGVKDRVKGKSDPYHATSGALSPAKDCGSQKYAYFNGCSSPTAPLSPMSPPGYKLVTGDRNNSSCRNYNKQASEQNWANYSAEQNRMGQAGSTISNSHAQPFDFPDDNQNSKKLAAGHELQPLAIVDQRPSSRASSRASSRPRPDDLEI

Molecule: CN[C@@H]1[C@@H](O)[C@@H](O[C@@H]2[C@@H](O)[C@H](O[C@H]3O[C@H]([C@@H](C)O)[C@@H](O)[C@H](O)[C@H]3N)[C@@H](N)C[C@H]2N)OC[C@]1(C)O [Geneticin, geneticin]
IC50 (human Cx26 hemichannels; IC50 of Cx26-dependent complementation (Figure 6), Figure 6A, fit of Hill's equation): 0.436 µM

Molecule: NC[C@@H]1O[C@H](O[C@H]2[C@@H](O)[C@H](O[C@@H]3[C@@H](O)[C@H](N)C[C@H](N)[C@H]3O[C@H]3O[C@H](CO)[C@@H](O)[C@H](O)[C@H]3N)O[C@@H]2CO)[C@H](N)[C@@H](O)[C@@H]1O [Paromomycin, paromomycin]
IC50 (human Cx43 hemichannels): 201 ± 17 µM | Inhibition of Cx46-dependent growth complementation (human Cx46 hemichannels; 200 μM aminoglycoside): 37 ± 4% | IC50 (human Cx46 hemichannels): > 200 µM | Reduction of Cx26-dependent growth complementation (human Cx26 hemichannels): ~ 80% | IC50 (human Cx26 hemichannels; [3]): 42 ± 9 µM

Molecule: CNC(C)C1CCC(N)C(OC2C(N)CC(N)C(OC3OCC(C)(O)C(NC)C3O)C2O)O1 (stereo not drawn) [gentamicin]
Effect on HCs (HCs): inhibits HCs reversibly | Effect on GJCs (GJCs): does not affect GJCs

Molecule: kanamycin A
Effect on HCs in LB2003 cell growth assay [2]: inhibited HCs | Growth of AG-sensitive LB2003 cells (no pREP4) (LB2003 cells): prevented growth

Continued, in another order:

IC50 (human Cx43 hemichannels): 24 ± 2 µM | IC50 ratio relative to Cx26 for Cx43 (human Cx43 hemichannels; isoform selectivity, Cx43 IC50 / Cx26 IC50): ~ 7 | IC50 (human Cx46 hemichannels): 175 ± 9 µM | IC50 ratio relative to Cx26 for Cx46 (human Cx46 hemichannels; isoform selectivity, Cx46 IC50 / Cx26 IC50): ~ 50 | IC50 (human Cx26 hemichannels; [3]): 3.6 ± 0.9 µM
Molecule: NC[C@H]1O[C@H](O[C@H]2[C@H](O)[C@@H](O[C@H]3O[C@H](CO)[C@@H](O)[C@H](N)[C@H]3O)[C@H](N)C[C@@H]2N)[C@H](N)[C@@H](O)[C@@H]1O [Kanamycin B, kanamycin B]

Effect on Cx43-dependent growth complementation (inhibition) (human Cx43 hemichannels; 100 μM aminoglycoside): −8 ± 5% | Reduction of Cx26-dependent growth complementation (human Cx26 hemichannels): 35 ± 3%
Molecule: NC[C@H]1O[C@H](O[C@H]2[C@H](O[C@@H]3O[C@H](CO)[C@@H](O)[C@H]3O)[C@@H](O)[C@H](N)C[C@@H]2N)[C@H](N)[C@@H](O)[C@@H]1O [ribostamycin]
Inhibition of connexin-dependent growth [1]: only a marginal effect
